# Measured values: patent US5914339A, “Substituted 1,3-benzodioxoles” (American Home Products Corporation, priority 1997, dated 1999)
# Target: human β2 adrenergic receptor (Homo sapiens, UniProt P07550)
# Assay: cell-based
# Conditions: 10 min; compounds tested at 10 nM, isoproterenol at 10 μM; CHO cells, 10 min at 37° C; read-out: β2: % of isoproterenol activity (increase in cAMP)
# Experimental: The activity of the test compounds on human β-adrenergic receptors was determined with Chinese hamster ovary (CHO) cells transfected with human β2, or β1 adrenergic receptors. Agonist activity is indicated by increased cAMP levels in the CHO cells. Selectivity of the test compounds for the β3 receptor was assessed by comparison with results in β2 and β1 adrenergic receptor transfected cells.
# 1). Chinese hamster ovary (CHO) cells transfected with human β2, or β1 adrenergic receptors were used in the assay.
# 2). Cells were grown to confluent conditions in 24 well plates.
# 3). Drugs were dissolved in DMSO at a concentration of 10 μM.
# 4). Cells were incubated with drug at 10 nM concentration for 10 min at 37° C.
# 5). Cell cAMP concentrations were assayed using a scintillation proximity assay kit from Amersham Corp., Chicago, Ill.
# 6). Activities for the test compounds are expressed as a percentage of the isoproterenol response.
# Production of the CHO cells transfected with human β2, or β1 adrenergic receptors, and compound test procedures utilizing the CHO cells, are described by Emorine et al. in their article "Molecular Characterization of the Human Beta3 -Adrenergic Receptor", Science 1989, 245(8), 1118-1121 and by Muzzin et al. in the article "An Adipose Tissue-Specific Beta3 -Adrenergic Receptor", J. Biol. Chem.1991, 266, 24053-24058.
# ^a Human β receptors expressed in Chinese hamster ovary cells,
# compounds tested at 10 nM, results expressed as % of isoproterenol
# activity (increase in cAMP) at 10 μM. EC50 (μM) values
# determined for selected compounds.
# Chain of human β2 adrenergic receptor (P07550 whole entry): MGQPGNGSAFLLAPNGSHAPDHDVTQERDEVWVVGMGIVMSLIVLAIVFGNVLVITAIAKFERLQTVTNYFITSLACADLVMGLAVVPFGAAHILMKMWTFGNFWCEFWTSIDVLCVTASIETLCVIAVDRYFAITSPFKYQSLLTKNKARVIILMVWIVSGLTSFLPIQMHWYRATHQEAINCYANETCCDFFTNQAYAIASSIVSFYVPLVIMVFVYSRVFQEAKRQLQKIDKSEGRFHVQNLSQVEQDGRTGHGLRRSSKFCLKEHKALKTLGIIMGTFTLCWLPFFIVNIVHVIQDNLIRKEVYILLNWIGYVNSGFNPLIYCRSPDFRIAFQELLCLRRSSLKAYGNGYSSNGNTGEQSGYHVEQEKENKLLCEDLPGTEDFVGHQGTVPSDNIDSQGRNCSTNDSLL
row,activation at 0.01 µM [%],SMILES
1,1,"CC(Cc1ccc2c(c1)OC(C(=O)OCC1(C)CC1)(C(=O)OCC1(C)CC1)O2)NCC(O)c1cccc(Cl)c1 (centres unmarked) [Example 39, 5-{2-[2-(3-Chloro-phenyl)-2-hydroxy-ethylamino]-propyl}-benzo[1,3]dioxole-2,2-dicarboxylic acid bis-(1-methyl-cyclopropylmethyl) ester]"
2,22,"CC(Cc1ccc2c(c1)OC(C(=O)OCCC1CCCC1)(C(=O)OCCC1CCCC1)O2)NCC(O)c1cccc(Cl)c1 (centres unmarked) [Example 41, 5-{2-[2-(3-Chloro-phenyl)-2-hydroxy-ethylamino]-propyl}-benzo[1,3]dioxole-2,2-dicarboxylic acid bis-(2-cyclopentyl-ethyl) ester]"
3,0,"CCC(=O)OCOC(=O)C1(C(=O)OCOC(=O)CC)Oc2ccc(CC(C)NCC(O)c3cccc(Cl)c3)cc2O1 (centres unmarked) [Example 43, 5-{2-[2-(3-Chloro-phenyl)-2-hydroxyethylamino]propyl}benzo[1,3] dioxole-2,2-dicarboxylic acid bis-propionyloxymethyl ester]"
4,0,"CCCC(=O)OCOC(=O)C1(C(=O)OCOC(=O)CCC)Oc2ccc(CC(C)NCC(O)c3cccc(Cl)c3)cc2O1 (centres unmarked) [Example 44, 5-{2-[2-(3-Chloro-phenyl)-2-hydroxyethylamino]propyl}benzo[1,3] dioxole-2,2-dicarboxylic acid bis-butyryloxymethyl ester]"
5,1,"CC(Cc1ccc2c(c1)OC(C(=O)OCOC(=O)C(C)C)(C(=O)OCOC(=O)C(C)C)O2)NCC(O)c1cccc(Cl)c1 (centres unmarked) [Example 45, 5-{2-[2-(3-Chloro-phenyl)-2-hydroxyethylamino]propyl}benzo[1,3] dioxole-2,2-dicarboxylic acid bis-isobutyryloxymethyl ester]"
6,16,"CCCCCCC(=O)OCOC(=O)C1(C(=O)OCOC(=O)CCCCCC)Oc2ccc(CC(C)NCC(O)c3cccc(Cl)c3)cc2O1 (centres unmarked) [Example 46, 5-{2-[2-(3-Chloro-phenyl)-2-hydroxyethylamino]propyl}benzo[1,3] dioxole-2,2-dicarboxylic acid bis-heptanoyloxymethyl ester]"
7,0,"CC(C)CCC(=O)OCOC(=O)C1(C(=O)OCOC(=O)CCC(C)C)Oc2ccc(CC(C)NCC(O)c3cccc(Cl)c3)cc2O1 (centres unmarked) [Example 47, 5-{2-[2-(3-Chloro-phenyl)-2-hydroxyethylamino]propyl}benzo[1,3] dioxole-2,2-dicarboxylic acid bis-(4-methyl-pentanoyloxymethyl) ester]"
8,4,"CCCCCC(=O)OCOC(=O)C1(C(=O)OCOC(=O)CCCCC)Oc2ccc(CC(C)NCC(O)c3cccc(Cl)c3)cc2O1 (centres unmarked) [Example 48, 5-{2-[2-(3-Chloro-phenyl)-2-hydroxyethylamino]propyl}benzo[1,3] dioxole-2,2-dicarboxylic acid bis-hexanoyloxymethyl ester]"
9,4,"CC(Cc1ccc2c(c1)OC(C(=O)OCOC(=O)C(C)(C)C)(C(=O)OCOC(=O)C(C)(C)C)O2)NCC(O)c1cccc(Cl)c1 (centres unmarked) [Example 49, 5-{2-[2-(3-Chloro-phenyl)-2-hydroxyethylamino]propyl}benzo[1,3] dioxole-2,2-dicarboxylic acid bis-(2,2-dimethyl-propionyloxymethyl) ester]"
10,0,"CC(Cc1ccc2c(c1)OC(C(=O)OCOC(=O)C1CCCCC1)(C(=O)OCOC(=O)C1CCCCC1)O2)NCC(O)c1cccc(Cl)c1 (centres unmarked) [Example 50, 5-{2-[2-(3-Chloro-phenyl)-2-hydroxyethylamino]propyl}benzo[1,3] dioxole-2,2-dicarboxylic acid bis-cyclohexanecarbonyloxymethyl ester]"

row,SMILES,activation at 0.01 µM [%]
1,"CC(=O)OCOC(=O)C1(C(=O)OCOC(C)=O)Oc2ccc(CC(C)NCC(O)c3cccc(Cl)c3)cc2O1 (centres unmarked) [Example 42, 5-{2-[2-(3-Chloro-phenyl)-2-hydroxyethylamino]propyl}benzo[1,3] dioxole-2,2-dicarboxylic acid bis-acetoxymethyl ester]",0
